Data on 7 molecules can be found in PMC3258498 (Journal of Medicinal Chemistry, 2011).

“And” between values parts separate entries of the source, which are not always exact repeats. Equal values may be shown once. Read-outs that look alike come from different tables or passages of the source. Where only a bound is given, the exact number is not on record here.

The test system of one test is WT HIV-1. As to conditions: cited from earlier work.
In test [1] the test system is IIIB strain of HIV-1 (WT). The test can be described thus: Anti-HIV-1 activity in infected MT-2 human T-cells, MTT colorimetric method. The format is cell-based. To be noted: for gain in potency: in going from 1.
The subject of test [2] is HIV-1 Y181C variant. As to conditions: read-out: activity for the Y181C-containing variant; cited from earlier work.
Test [3] relates to HIV-1 K103N/Y181C variant. To be noted: read-out: EC50 K103N/Y181C; Literature data, MT4 cells; cited from earlier work.
The test system of test [4] is HIV-1 Y181C variant. As to conditions: read-out: EC50 Y181C; Literature data, MT4 cells; cited from earlier work.
The mark [5] stands for this setting: read-out: activity for WT HIV-1.

Turning to `Cc1cc(C)cc(Oc2c(CSCc3ccco3)c(C)[nH]c(=O)c2I)c1` [compound 3], the EC50 in the test with WT HIV-1 (read-out: activity towards WT HIV-1) is 1 to 10 nM and 2 nM. Consider `O=c1ccn(CCOc2ccc(Cl)cc2Cc2cc(Cl)ccc2Cl)c(=O)[nH]1` [compound 10], for which the gain in potency entry in test [1] was “ca. 15 fold”.

As for `O=c1ccn(CCOc2ccc(Cl)cc2Cc2c(Cl)cccc2Cl)c(=O)[nH]1` [compound 11], the gain in potency entry in test [1] was “ca. 15 fold”. As to `N#Cc1ccc(Oc2cc(Cl)ccc2Cl)c(OCCc2ccncc2)c1` [compound 33], the “worsening of the EC50 value” in test [1] (relative to 31) is on record as 18 fold. In the case of `CCc1c(C)[nH]c(=O)c(I)c1Oc1cccc(/C=C/C#N)c1` [compound 38], the EC50 in the test on WT HIV-1 (setting [5]) and in the test with HIV-1 Y181C variant [2] was below 5 nM in each case. As to `Cc1cc(/C=C/C#N)cc(C)c1Nc1ccnc(Nc2ccc(C#N)cc2)n1` [compound 39, 4-[[4-[[4-[(1E)-2-cyanoethenyl]-2,6-dimethylphenyl]amino]-2-pyrimidinyl]amino]benzonitrile], the EC50 with WT HIV-1 (setting [5]) and in the test with HIV-1 Y181C variant [2] was below 5 nM in each case. Consider `Cc1ccnc2c1NC(=O)c1cccnc1N2C1CC1` [nevirapine], for which the EC50 (in test [3]; with HIV-1 Y181C variant [4]) was above 10000 nM in each case.
